Here are results for 21 compounds from ChEMBL document CHEMBL5291721, “A preclinical secondary pharmacology resource illuminates target-adverse drug reaction associations of marketed drugs” (Nat Commun, 2023).

Experiment [1] concerns the target T1, Alpha-2A adrenergic receptor (Homo sapiens, UniProt P08913).
T1 sequence (P08913 whole entry): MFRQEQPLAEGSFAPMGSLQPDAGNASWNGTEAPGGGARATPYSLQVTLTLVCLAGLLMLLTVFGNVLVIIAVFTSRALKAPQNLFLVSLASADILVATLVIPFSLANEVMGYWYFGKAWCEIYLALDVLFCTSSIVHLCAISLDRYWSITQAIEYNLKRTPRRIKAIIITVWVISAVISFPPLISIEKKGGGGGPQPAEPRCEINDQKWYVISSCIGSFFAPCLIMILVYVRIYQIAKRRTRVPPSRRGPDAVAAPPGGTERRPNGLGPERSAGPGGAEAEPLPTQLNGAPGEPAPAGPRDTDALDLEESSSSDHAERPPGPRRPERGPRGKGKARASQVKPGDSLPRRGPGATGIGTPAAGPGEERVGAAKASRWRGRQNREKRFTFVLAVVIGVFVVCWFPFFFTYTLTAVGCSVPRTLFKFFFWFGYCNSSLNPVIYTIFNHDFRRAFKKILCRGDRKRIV

For experiment [2], the target named is T2, Peroxisome proliferator-activated receptor gamma (Homo sapiens, UniProt P37231).
T2 sequence (P37231 whole entry): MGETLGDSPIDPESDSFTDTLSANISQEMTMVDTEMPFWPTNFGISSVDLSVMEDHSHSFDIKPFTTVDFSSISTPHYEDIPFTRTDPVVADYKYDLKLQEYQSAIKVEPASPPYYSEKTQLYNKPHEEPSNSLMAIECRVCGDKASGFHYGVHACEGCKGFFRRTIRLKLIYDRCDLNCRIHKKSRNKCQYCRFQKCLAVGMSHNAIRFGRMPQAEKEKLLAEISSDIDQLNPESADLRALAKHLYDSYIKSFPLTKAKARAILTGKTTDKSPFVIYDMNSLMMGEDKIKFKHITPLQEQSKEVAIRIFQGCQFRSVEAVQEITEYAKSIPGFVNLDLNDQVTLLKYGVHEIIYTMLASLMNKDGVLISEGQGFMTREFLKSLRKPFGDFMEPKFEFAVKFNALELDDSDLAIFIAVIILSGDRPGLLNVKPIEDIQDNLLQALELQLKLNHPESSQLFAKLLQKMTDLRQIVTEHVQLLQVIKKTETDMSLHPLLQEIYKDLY
Type of experiment: functional.

For a further experiment, the target named is T3, D(4) dopamine receptor (Homo sapiens, UniProt P21917).
T3 sequence (P21917 whole entry): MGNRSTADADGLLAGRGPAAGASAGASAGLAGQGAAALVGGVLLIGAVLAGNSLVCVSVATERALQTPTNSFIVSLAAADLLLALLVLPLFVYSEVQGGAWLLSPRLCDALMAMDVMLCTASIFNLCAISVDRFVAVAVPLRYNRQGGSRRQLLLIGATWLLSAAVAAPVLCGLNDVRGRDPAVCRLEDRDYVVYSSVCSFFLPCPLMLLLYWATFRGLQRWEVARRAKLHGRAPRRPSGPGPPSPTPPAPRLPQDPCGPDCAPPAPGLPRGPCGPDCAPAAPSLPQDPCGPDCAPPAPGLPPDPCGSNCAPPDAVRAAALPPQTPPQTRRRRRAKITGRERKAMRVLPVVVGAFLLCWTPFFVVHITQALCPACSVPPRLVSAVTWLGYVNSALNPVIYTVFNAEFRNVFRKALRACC

Experiment [3] concerns the target T4, Endothelin receptor type B (Homo sapiens, UniProt P24530).
T4 sequence (P24530 whole entry): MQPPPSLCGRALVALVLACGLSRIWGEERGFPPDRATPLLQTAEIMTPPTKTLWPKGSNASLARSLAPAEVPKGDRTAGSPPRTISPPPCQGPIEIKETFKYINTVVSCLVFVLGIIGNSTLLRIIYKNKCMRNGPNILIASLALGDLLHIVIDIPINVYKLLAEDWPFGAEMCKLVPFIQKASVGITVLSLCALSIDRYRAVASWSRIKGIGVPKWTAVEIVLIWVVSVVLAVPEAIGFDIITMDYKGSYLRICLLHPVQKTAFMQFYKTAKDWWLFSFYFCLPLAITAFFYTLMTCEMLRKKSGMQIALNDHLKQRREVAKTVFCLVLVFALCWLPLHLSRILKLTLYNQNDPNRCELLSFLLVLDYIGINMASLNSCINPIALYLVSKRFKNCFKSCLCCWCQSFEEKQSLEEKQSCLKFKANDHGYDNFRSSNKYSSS

The target in experiment [4] is T5, Muscarinic acetylcholine receptor M2 (Homo sapiens, UniProt P08172).
T5 sequence (P08172 whole entry): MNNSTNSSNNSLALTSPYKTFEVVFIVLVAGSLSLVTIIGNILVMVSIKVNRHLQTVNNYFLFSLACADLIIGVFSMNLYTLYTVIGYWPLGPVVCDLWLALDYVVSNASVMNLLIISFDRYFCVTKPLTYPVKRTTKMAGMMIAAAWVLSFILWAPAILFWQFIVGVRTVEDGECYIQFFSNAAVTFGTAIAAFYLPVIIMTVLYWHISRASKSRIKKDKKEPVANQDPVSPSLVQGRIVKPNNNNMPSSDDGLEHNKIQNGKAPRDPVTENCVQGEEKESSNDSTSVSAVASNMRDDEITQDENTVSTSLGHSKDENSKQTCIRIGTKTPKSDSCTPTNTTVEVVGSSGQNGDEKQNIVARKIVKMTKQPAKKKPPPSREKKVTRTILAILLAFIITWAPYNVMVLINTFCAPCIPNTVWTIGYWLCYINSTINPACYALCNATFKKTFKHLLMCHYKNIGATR

In experiment [5] the target is Beta-3 adrenergic receptor (Homo sapiens, UniProt P13945).
Beta-3 adrenergic receptor, sequence (P13945 whole entry): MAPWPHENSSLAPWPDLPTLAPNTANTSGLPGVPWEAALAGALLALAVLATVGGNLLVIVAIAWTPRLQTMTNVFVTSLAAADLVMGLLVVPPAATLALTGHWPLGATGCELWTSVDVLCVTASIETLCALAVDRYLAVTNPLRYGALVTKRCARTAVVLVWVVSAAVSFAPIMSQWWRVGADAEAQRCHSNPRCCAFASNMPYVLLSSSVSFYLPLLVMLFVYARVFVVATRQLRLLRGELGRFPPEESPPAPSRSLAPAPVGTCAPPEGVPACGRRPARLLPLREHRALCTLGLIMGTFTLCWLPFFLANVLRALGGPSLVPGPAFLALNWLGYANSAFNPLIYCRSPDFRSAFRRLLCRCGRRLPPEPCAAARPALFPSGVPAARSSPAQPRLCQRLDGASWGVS
Experiment [6] addresses T6, Corticotropin-releasing factor receptor 1 (Homo sapiens, UniProt P34998).
T6 sequence (P34998 whole entry): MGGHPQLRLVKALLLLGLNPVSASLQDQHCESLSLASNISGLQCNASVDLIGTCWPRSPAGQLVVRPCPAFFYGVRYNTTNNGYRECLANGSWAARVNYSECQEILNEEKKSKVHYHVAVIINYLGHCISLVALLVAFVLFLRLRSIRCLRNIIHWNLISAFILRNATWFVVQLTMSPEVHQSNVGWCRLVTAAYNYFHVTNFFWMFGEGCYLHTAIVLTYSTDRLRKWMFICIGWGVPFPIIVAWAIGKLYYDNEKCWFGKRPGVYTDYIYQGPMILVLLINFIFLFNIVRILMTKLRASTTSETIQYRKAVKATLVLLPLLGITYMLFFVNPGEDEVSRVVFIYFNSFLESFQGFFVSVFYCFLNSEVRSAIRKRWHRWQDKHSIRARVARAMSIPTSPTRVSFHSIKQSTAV

Experiment [7] has as its target Neurotensin receptor type 1 (Homo sapiens, UniProt P30989).
Note: assay procedure not described here.

Neurotensin receptor type 1, sequence (P30989 whole entry): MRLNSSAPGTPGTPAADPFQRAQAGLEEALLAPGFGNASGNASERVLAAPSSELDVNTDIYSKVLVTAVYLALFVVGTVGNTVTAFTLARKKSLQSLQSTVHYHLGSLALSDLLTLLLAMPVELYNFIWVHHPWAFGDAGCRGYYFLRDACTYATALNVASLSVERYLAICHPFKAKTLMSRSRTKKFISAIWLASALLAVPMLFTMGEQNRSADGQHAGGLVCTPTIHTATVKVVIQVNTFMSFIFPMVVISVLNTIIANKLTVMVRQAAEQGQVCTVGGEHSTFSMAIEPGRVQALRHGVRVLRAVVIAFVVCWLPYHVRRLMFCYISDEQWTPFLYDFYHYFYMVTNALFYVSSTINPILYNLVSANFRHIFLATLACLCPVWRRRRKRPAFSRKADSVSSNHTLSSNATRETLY

Broadly, the AC50 is the midpoint of the concentration-response curve, whichever way the signal moves. `COc1ccc(CC2c3cc(OC)c(OC)cc3CC[N+]2(C)CCC(=O)OCCCCCOC(=O)CC[N+]2(C)CCc3cc(OC)c(OC)cc3C2Cc2ccc(OC)c(OC)c2)cc1OC` (configuration not stated) displayed an AC50 in experiment [1] of over 30 µM.
Turning to `CCN1CCN(Cc2ccc(Nc3ncc(F)c(-c4cc(F)c5nc(C)n(C(C)C)c5c4)n3)nc2)CC1` [ABEMACICLIB], in experiment [2], the AC50 was over 30 µM.
In the case of `CCCN(CCC)C(=O)Cc1c(-c2ccc(Cl)cc2)nc2ccc(Cl)cn12` [ALPIDEM], the AC50 (at D(4) dopamine receptor; in experiment [3]; in experiment [1]; in experiment [4]) was over 10 µM throughout.
With `COc1ccccc1Oc1c(NS(=O)(=O)c2ccc(C(C)(C)C)cc2)nc(-c2ncccn2)nc1OCCO` [BOSENTAN], the AC50 in experiment [5] was over 30 µM; in experiment [6] it was over 30 µM; in experiment [7], over 30 µM; in experiment [1], over 10 µM; in experiment [4] it was over 10 µM.
`COc1cc2nccc(Oc3ccc(NC(=O)C4(C(=O)Nc5ccc(F)cc5)CC4)cc3)c2cc1OC` [CABOZANTINIB]: the AC50 in experiment [2] is over 30 µM.
Regarding `C[C@@H](Oc1cc(-c2cnn(C3CCNCC3)c2)cnc1N)c1c(Cl)ccc(F)c1Cl` [CRIZOTINIB], the AC50 is 14.2 µM in experiment [5], over 30 µM in experiment [6], over 30 µM in experiment [2] and over 10 µM in experiment [4].
With `CC(C)N(CCC(C(N)=O)(c1ccccc1)c1ccccn1)C(C)C` (configuration not stated) [DISOPYRAMIDE], the AC50 in experiment [5] was 8.37 µM; in experiment [6], over 30 µM; in experiment [3] it was over 30 µM; in experiment [7] it was over 30 µM.
`C[C@H]1c2cccc(O)c2C(=O)C2=C(O)[C@]3(O)C(=O)C(C(N)=O)=C(O)[C@@H](N(C)C)[C@@H]3[C@@H](O)[C@@H]21` [DOXYCYCLINE]: the AC50 in experiment [5] was over 30 µM; in experiment [6] it was over 30 µM; on D(4) dopamine receptor it was over 10 µM; in experiment [3], over 30 µM; in experiment [7], over 30 µM; in experiment [1], over 10 µM. The AC50 in experiment [4] is over 10 µM.
Regarding `CN1C[C@H](C(=O)N[C@]2(C)O[C@@]3(O)[C@@H]4CCCN4C(=O)[C@H](Cc4ccccc4)N3C2=O)C=C2c3cccc4[nH]cc(c34)C[C@H]21` [ERGOTAMINE], the AC50 in experiment [2] is over 30 µM.
Turning to `CC(C)Cc1ccc(C(C)C(=O)O)cc1` (configuration not stated) [IBUPROFEN], the AC50 is 7.12 µM in experiment [5]; over 30 µM in experiment [6]; over 10 µM on D(4) dopamine receptor; over 30 µM in experiment [3]; over 30 µM in experiment [7]; over 10 µM in experiment [1]. In experiment [4], this compound registered an AC50 of over 10 µM.
On to `CO[C@H]1/C=C/O[C@@]2(C)Oc3c(C)c(O)c4c(O)c(c(/C=N/N5CCN(C)CC5)c(O)c4c3C2=O)NC(=O)/C(C)=C\C=C\[C@H](C)[C@H](O)[C@@H](C)[C@@H](O)[C@@H](C)[C@H](OC(C)=O)[C@@H]1C` [RIFAMPIN], for which the AC50 is 32.6 µM in experiment [5]; over 30 µM in experiment [6]; over 10 µM on D(4) dopamine receptor; over 30 µM in experiment [3]; over 30 µM in experiment [7]; over 10 µM in experiment [1].
Regarding `CN(C)CCc1c[nH]c2ccc(Cn3cncn3)cc12` [RIZATRIPTAN], the concentration at half-maximal activity (AC50) in experiment [5] is over 30 µM; in experiment [6], over 30 µM; on D(4) dopamine receptor, over 10 µM; in experiment [3], over 30 µM; in experiment [7] it was over 30 µM; in experiment [1], over 10 µM. The same compound came in with an AC50 in experiment [4] of over 10 µM.
Regarding `CC(C)c1nc(N(C)S(C)(=O)=O)nc(-c2ccc(F)cc2)c1/C=C/[C@@H](O)C[C@@H](O)CC(=O)O` [ROSUVASTATIN], the AC50 in experiment [2] was over 30 µM.
For the compound `N[C@@H](CC(=O)N1CCn2c(nnc2C(F)(F)F)C1)Cc1cc(F)c(F)cc1F` [SITAGLIPTIN], the AC50 at D(4) dopamine receptor is over 10 µM; in experiment [3] it was over 10 µM; in experiment [7], over 10 µM; in experiment [2] it was over 30 µM; in experiment [1], over 10 µM; in experiment [4], over 10 µM.
Turning to `OC[C@H]1O[C@@](CO)(O[C@H]2O[C@H](CO)[C@@H](O)[C@H](O)[C@H]2O)[C@@H](O)[C@@H]1O` [SUCROSE], the AC50 in experiment [2] is over 30 µM.
On to `Nc1ccc(S(=O)(=O)Nc2nccs2)cc1` [SULFATHIAZOLE], for which the AC50 in experiment [5] was over 30 µM; in experiment [6], over 30 µM; on D(4) dopamine receptor, over 10 µM; in experiment [3] it was over 30 µM; in experiment [7], over 30 µM; in experiment [1], over 10 µM. The AC50 in experiment [4] was over 10 µM.
`CCN(CC)CCNC(=O)c1c(C)[nH]c(/C=C2\C(=O)Nc3ccc(F)cc32)c1C` [SUNITINIB]: the AC50 at D(4) dopamine receptor turned out to be 0.108 µM; in experiment [1], 9.47 µM; in experiment [4], 7.19 µM.
`COc1cc2nc(N3CCN(C(=O)C4CCCO4)CC3)nc(N)c2cc1OC` (configuration not stated) [TERAZOSIN]: the AC50 is over 30 µM in experiment [5]; over 30 µM in experiment [6]; over 10 µM on D(4) dopamine receptor; over 30 µM in experiment [3]; over 30 µM in experiment [7]; 7.27 µM in experiment [1]. For the same compound, the AC50 in experiment [4] was over 10 µM.
`CC(S)C(=O)NCC(=O)O` (configuration not stated) [TIOPRONIN]: the AC50 in experiment [2] is over 30 µM.
Same read-out and setting: with `C[C@H](CCC(=O)O)[C@H]1CC[C@H]2[C@@H]3[C@@H](O)C[C@@H]4C[C@H](O)CC[C@]4(C)[C@H]3CC[C@]12C` [URSODIOL] the figure was over 30 µM.
In the case of `CCCC(CCC)C(=O)O` [VALPROIC ACID], the AC50 is over 30 µM in experiment [5]; over 30 µM in experiment [6]; over 10 µM on D(4) dopamine receptor; over 30 µM in experiment [3]; over 30 µM in experiment [7]; over 10 µM in experiment [1]. The compound further gave an AC50 in experiment [4] of over 10 µM.
